Experimental data taken from patent publication US9067966B2, “Lupeol-type triterpene derivatives as antivirals” (priority 2009, dated 2015).
Where two headings read alike, the source gives them in different places.

Experiments:
in vitro = assay type: cell-based; conditions: human, CC50
Method: (§1) Compound was dissolved in DMSO to make 30 mM stock. Then the 30 mM stock is further diluted to 4 mM using DMSO. The 4 mM stock was used as the top concentration to carry out an 11-point, 3-fold dilution scheme using DMSO in a 96-well plate to make the compound dose plate. Compounds in the dose plate were transferred to a new 96-well plate (working plate) containing PBS with 0.05% pluronic acid. From this working plate, the compound solution was transferred to the 384-well assay plates.
For cytotoxicity assay the same amount of MT2 cells as in antivirus assay but without HIV-1 virus were added to the cytotoxicity plates. The cytotoxicity was measured by Cell Titer-Glo cell viability assay (Promega).

HIV-1 strain IIIB = assay: Anti-HIV-1 luciferase indicator assay in MT2 cells, IIIB; assay type: cell-based; conditions: for IC50: Human immunodeficiency virus 1, IIIB; for TI / Safety Index (CC50/IC50): MT2 cells
Method: as §1
(§2) Control compounds used in compound control wells were prepared and added to assay plates individually.
(§3) MT2 cells were mixed with HIV-1 strain NL4-3 (or IIIB, or CNHN24) and the cell/virus mixture was added to the aforementioned antivirus assay plates. After incubation in a 37° C., 5% CO2 incubator, the supernatant from the assay plate was transferred to a new 384-well plate containing the indicator cells with a fire fly luciferase gene under HIV-1 LTR control. The expression level of luciferase was related to HIV-1 infectivity and was measured by Bright-Glo kit (Promega).
(§4) Therapeutic index (TI) was determined by taking ratio of CC50/IC50

HIV-1 strain CNHN24 = assay: Anti-HIV-1 luciferase indicator assay in MT2 cells, CNHN24; assay type: cell-based; conditions: for TI / Safety Index (CC50/IC50): MT2 cells
Method: as §1, §2, §3, §4

[1] = Cytotoxicity on Molt-4 cells (MTT); assay type: cell-based; conditions: human, read-out: Percent Viability; for viability at 24 h, 0.1 µM: concentration 0.1 μM; for viability at 24 h, 1 µM: concentration 1 μM; for viability at 24 h, 10 µM: concentration 10 μM; for viability at 24 h, 100 µM: concentration 100 μM
Method: 10 mM stock solution of the test compound was made in DMSO and stored at −20° C. for further use. During the day of the experiment working stocks were made by serial dilution with DMSO. The final concentration of DMSO in the test media is 1%.
MTT assay was performed in a 96 well format using Molt-4 cell line (Human acute T lymphoblastic leukemia)—a suspension culture maintained in RPMI with 10% FBS media.
Approximately 0.03 million cells are seeded/well and the plate was incubated for 16 hours. Following incubation, cells are treated with a test compound at a defined concentration in triplicates and incubation was continued for another 24 hours. At the end of the incubation, MTT reagent was added (10 μl, 5 mg/ml stock) to the plate and continued incubation for additional 4 hours. Reaction was terminated by addition of 200 μl 0.1N acidic propanol. The colour developed was measured by a plate reader using 590 nm filters. The percent viability was calculated by comparing mean absorbance value of sample with the control (Vehicle alone).

HIV-1 strain NL4-3 = assay: Anti-HIV-1 luciferase indicator assay in MT2 cells, NL4-3; assay type: cell-based; conditions: viral strain NL4-3; for IC50: Human immunodeficiency virus 1, NL43, MT2, MT2 cells, read-out: IC50; for TI / Safety Index (CC50/IC50): MT2 cells
Method: as §1, §2, §3, §4

[2] = Cytotoxicity on Sup-T1 cells (MTT); assay type: cell-based; conditions: human, read-out: Percent Viability; for viability at 0.001 µM: concentration 1 nM; for viability at 0.1 µM: concentration 100 nM; for viability at 1 µM: concentration 1 μM; for viability at 100 µM: concentration 100 μM; for viability at 1 mM: concentration 1 mM
Method: Reduction of 3-(4,5-dimethylthiozol-2-yl)-2,5-diphenyltetrazolium bromide (MTT, sigma) is chosen as an optimal end point of cell viability measurement (Mosmann, 1983; Cole, 1986; Alley et al., 1988) […] (0.2×10^6 cells per well) are seeded in 96-well plates. Increasing concentrations of compound are added to the cells and incubated at 37° C. for about 14 hours in a CO2 Incubator with 5% CO2. The media is replaced with a fresh growth medium along with 20 μL of 5 mg/ml 3-(4,5-dimethylthiazol-2-yl)-2,5-diphenyltetrazolium bromide (MTT, Sigma). After incubation for about 4 hours in a humidified atmosphere, the media is removed and 200 μL of 0.1 N acidic isopropyl alcohol is added to the wells to dissolve the MTT-formazan crystals. The absorbance is recorded at 570 nm, immediately after the development of purple colour. Each experiment is conducted in triplicate and the data are represented as average, with standard deviation. Percent viability of the cells is computed with reference to the absorbance of reduced MTT in the experiments conducted in absence of any compound.

HIV-193IN 101 = assay: P24 assay for anti-HIV activity in Sup-T1 cells; assay type: cell-based, HIV-1; conditions: Human immunodeficiency virus 1, SUP-T1, read-out: Percent Inhibition of HIV-193IN 101 Replication in Sup-T1 Cells (table title: Percent Viability)
Method: Viral p24 is measured after about 72 hours of post infection in presence of drugs using an ABL p24 ELISA kit. 0.5 million cells/well are taken into the 24 well plates and added increasing concentrations of drugs. 1 ng/ml of HIV-1 virus was added to each well and incubated for overnight at 37° C. (37° C. and 5% CO2). After about 16 hours incubation the media was changed and fresh media was added and cultured for about 72 hours. P24 was quantified at the 4th day of post-infection using an ABL kit according to manufacturer's instructions.
Percent Inhibition of HIV-193IN 101 Replication in Sup-T1 Cells

[3] = MT2, MT2 cells, viral strain II B, read-out: IC50
[4] = Human immunodeficiency virus 1, MT2, MT2 cells, viral strain CNHN24, read-out: IC50

Structure (SMILES) | CC50 (in vitro) [nM] | IC50 (HIV-1 strain IIIB; [3]) [nM] | TI / Safety Index (CC50/IC50) (HIV-1 strain IIIB; viral strain II B) | IC50 (HIV-1 strain CNHN24; [4]) [nM] | TI / Safety Index (CC50/IC50) (HIV-1 strain CNHN24; viral strain CNHN24) | IC50 (HIV-1 strain NL4-3) [nM] | TI / Safety Index (CC50/IC50) (HIV-1 strain NL4-3) | other results
C=C(C)[C@@H]1CC[C@]2(C(=O)N[C@@H]3C[C@H](C(=O)OCc4ccccc4)C3(C)C)CC[C@]3(C)[C@H](CC[C@@H]4[C@@]5(C)CC[C@H](OC(=O)CC(C)(C)C(=O)O)C(C)(C)[C@@H]5CC[C@]43C)[C@@H]12 | – | – | – | – | – | – | – | melting point: 64.7 to 100.4 °C
C=C(C)[C@@H]1CC[C@]2(C(=O)O)CC[C@]3(C)[C@H](CC[C@@H]4[C@@]5(C)CC[C@H](OC(=O)[C@@H]6C[C@H](C(=O)O)C6(C)C)C(C)(C)[C@@H]5CC[C@]43C)[C@@H]12 [Example 4, (1R,3aS,5aR,5bR,7aR,9S,11aR,11bR,13aR,13bR)-9-((1R,3S)-3-carboxy-2,2-dimethylcyclobutanecarbonyloxy)-5a,5b,8,8,11a-pentamethyl-1-(prop-1-en-2-yl)icosahydro-1H-cyclopenta[a]chrysene-3a-carboxylic acid] | 20000 | 364 | 54 | 218 | 91 | 201 | 91 | viability at 24 h, 0.1 µM [1]: 101%; viability at 24 h, 1 µM [1]: 98.7%; viability at 24 h, 10 µM [1]: 102%; viability at 24 h, 100 µM [1]: 7.03%; viability at 0.001 µM [2]: 85.8%; viability at 0.1 µM [2]: 86.8%; viability at 1 µM [2]: 85.2%; viability at 100 µM [2]: 39%; viability at 1 mM [2]: 26.2%; inhibition at 0.0001 µM (HIV-193IN 101): 13%; inhibition at 0.001 µM (HIV-193IN 101): 17.7%; inhibition at 0.1 µM (HIV-193IN 101): 23.5%; inhibition at 1 µM (HIV-193IN 101): 42.4%; inhibition at 100 µM (HIV-193IN 101): 87.5%
C=C(C)[C@@H]1CC[C@]2(C(=O)O)CC[C@]3(C)C(CC[C@@H]4[C@@]5(C)[C@@H](C(=O)O)[C@H](OC(=O)CC(C)(C)C(=O)O)C(C)(C)[C@@H]5CC[C@]43C)C12 (stereo partly drawn) [Example 6, (1R,2S,3aR,5aR,5bR,7aS,10R,12aR,12bR)-2-(3-carboxy-3-methylbutanoyloxy)-3,3,5a,5b,12b-pentamethyl-10-(prop-1-en-2-yl)icosahydrodicyclopenta[a,i]phenanthrene-1,7a-dicarboxylic acid] | – | – | – | – | – | – | – | viability at 24 h, 0.1 µM [1]: 103%; viability at 24 h, 1 µM [1]: 99%; viability at 24 h, 10 µM [1]: 82.8%; viability at 24 h, 100 µM [1]: 7.27%; viability at 0.001 µM [2]: 86.9%; viability at 0.1 µM [2]: 82.7%; viability at 1 µM [2]: 88.6%; viability at 100 µM [2]: 88.8%; viability at 1 mM [2]: 23.1%; inhibition at 0.0001 µM (HIV-193IN 101): 17.5%; inhibition at 0.001 µM (HIV-193IN 101): 15.2%; inhibition at 0.1 µM (HIV-193IN 101): 21.1%; inhibition at 1 µM (HIV-193IN 101): 32.1%; inhibition at 100 µM (HIV-193IN 101): 34.9%
C=C(C)[C@@H]1CC[C@]2(C(=O)N3CCC(Cc4ccccc4)(C(=O)OCC)CC3)CC[C@]3(C)[C@H](CC[C@@H]4[C@@]5(C)CC[C@H](OC(=O)CC(C)(C)C(=O)O)C(C)(C)[C@@H]5CC[C@]43C)[C@@H]12 [Example 57, 4-((1R,3aS,5aR,5bR,7aR,9S,11aR,11bR,13aR,13bR)-3a-(4-benzyl-4-(ethoxycarbonyl)piperidine-1-carbonyl)-5a,5b,8,8,11a-pentamethyl-1-(prop-1-en-2-yl)icosahydro-1H-cyclopenta[a]chrysen-9-yloxy)-2,2-dimethyl-4-oxobutanoic acid] | > 20000 | 590 | 33 | 1070 | 20 | 857 | 23 | –
C=C(C)[C@@H]1CC[C@]2(C(=O)N3CCC(CC)(C(=O)OCC)CC3)CC[C@]3(C)[C@H](CC[C@@H]4[C@@]5(C)CC[C@H](OC(=O)CC(C)(C)C(=O)O)C(C)(C)[C@@H]5CC[C@]43C)[C@@H]12 [Example 74, 4-((1R,3aS,5aR,5bR,7aR,9S,11aR,11bR,13aR,13bR)-3a-(4-(ethoxycarbonyl)-4-ethylpiperidine-1-carbonyl)-5a,5b,8,8,11a-pentamethyl-1-(prop-1-en-2-yl)icosahydro-1H-cyclopenta[a]chrysen-9-yloxy)-2,2-dimethyl-4-oxobutanoic acid] | 7760 | 86 | 90 | 163 | 47 | 165 | 47 | –
C=C(C)[C@@H]1CC[C@]2(C(=O)N[C@@H]3CC[C@H](CN4CCC(Cc5ccccc5)CC4)C3)CC[C@]3(C)[C@H](CC[C@@H]4[C@@]5(C)CC[C@H](OC(=O)CC(C)(C)CC(=O)O)C(C)(C)[C@@H]5CC[C@]43C)[C@@H]12 [Example 94, 5-((1R,3aS,5aR,5bR,7aR,9S,11aR,11bR,13aR,13bR)-3a-((1R,3S)-3-((4-benzylpiperidin-1-yl)methyl)cyclopentylcarbamoyl)-5a,5b,8,8,11a-pentamethyl-1-(prop-1-en-2-yl)icosahydro-1H-cyclopenta[a]chrysen-9-yloxy)-3,3-dimethyl-5-oxopentanoic acid] | 4000 | 19 | 210 | 26 | 153 | 23 | 173 | –
C=C(C)[C@@H]1CC[C@]2(C(=O)N[C@@H]3C=C[C@H](CN4CCOCC4)C3)CC[C@]3(C)[C@H](CC[C@@H]4[C@@]5(C)CC[C@H](OC(=O)CC(C)(C)C(=O)O)C(C)(C)[C@@H]5CC[C@]43C)[C@@H]12 [Example 95, 2,2-dimethyl-4-oxo-4-((1R,3aS,5aR,5bR,7aR,9S,11aR,11bR,13aR,13bR)-5a,5b,8,8,11a-pentamethyl-3a-((1S,4R)-4-(morpholinomethyl)cyclopent-2-enylcarbamoyl)-1-(prop-1-en-2-yl)icosahydro-1H-cyclopenta[a]chrysen-9-yloxy)butanoic acid] | > 20000 | – | 20000 | – | – | 4 | 5000 | IC50 (HIV-1 strain IIIB; MT2): 1 nM; IC50 (HIV-1 strain CNHN24; Human immunodeficiency virus 1, MT2): 3 nM
